By IC50 is commonly meant the concentration at which inhibition is half-maximal.

Data set [1] concerns the target T1, DPP-IV (Homo sapiens, UniProt P27487).
T1 construct: purchased Sigma-Aldrich
As to the kind of experiment: DPP-IV inhibitory assay (in vitro chemical system, Gly-Pro-pNA). In kind it is biochemical. The conditions noted are these: Gly-Pro-pNA substrate, pH 8, 37 °C, 60 min, mean ± SD. The protocol: The DPP-IV inhibitory activity of peptides was performed as previously reported with slight modifications. Briefly, peptides were diluted using 100 mM Tris-HCL buffer (pH = 8). Then, 25 μL diluted peptides were mixed with 25 μL of 1.6 mM Gly-Pro-pNA in a 96-well microplate and incubated at 37 °C for 10 min. […] The DPP-IV-inhibition (DI) was calculated with the following equation: DI%=1−AS−ASC/ANR−ANC×100% where AS (sample) is the optical density in the presence of peptide, DPP-IV, and Gly-Pro-pNA; ASC (sample control) is the optical density when DPP-IV is replaced with Tris-HCl buffer (100 mM, pH 8.0); ANR (negative reaction) is the optical density in the presence of only DPP-IV solution and Gly-Pro-pNA; and ANC (negative control) is the optical density in the absence of DPP-IV and peptide.

For data set [2], the system named is DPP-IV. As to conditions: cited from earlier work.
The next data set deals with Caco-2 cells. The data set can be described thus: Cell viability assay (MTT). As to conditions: 0.025~1 mg/mL, 12 h. The format is cell-based. The protocol:
(§1) The Caco-2 cells (Cell Bank of Shanghai Academy of Biological Science, Shanghai, China) were incubated at 37 °C in a 5% CO2 environment in DMEM supplemented with 10% FBS and 1% penicillin–streptomycin liquid. Unless otherwise stated below, the cells were cultivated at a density of 5 × 10^4 cells/mL in the culture dishes (Corning Inc., Corning, NY, USA). The cell culture medium was changed every two days, and the cells from passage numbers of 15–25 were used in this study.
The cell viability was determined following the method described by You et al. with slight modification. Briefly, Caco-2 cells were seeded in 96-well microplates with a density of 1 × 10^4 cells/well and incubated at 37 °C with 5% CO2 for 24 h. […] After 12 h of intervention, 10 μL of MTT (0.05 mg) was added and incubated for another 4 h. Finally, the DMEM medium was replaced with 100 μL of DMSO and the absorbance of the solubilized crystals was detected at 490 nm (Molecular Devices SpectraMax M5, San Jose, CA, USA). The cell viability was calculated by the following equation:Cell viability (%) = (ODtest − ODblank)/(ODcontrol − ODblank) × 100%

Data set [3] addresses T2, DPP-IV activity of Caco-2 cells (Homo sapiens, UniProt P27487).
T2 construct: endogenous in cells; host or cells: Caco-2
The data set can be described thus: In situ cell-based DPP-IV inhibition (Gly-Pro-AMC). As to conditions: 1 h at 37 °C, Gly-Pro-AMC 50 µM, mean ± SD (n = 3), read-out: In situ DPP-IV inhibitory activity IC50. The method, then:
as §1
Briefly, 2 × 10^4 Caco-2 cells/well cells were seeded in 96-well microplates and cultivated for 24 h. […] Subsequently, 100 µL of the fluorescent substrate Gly-Pro-AMC (50 µM) was added to each well and incubated for 5 min. IPI was used as a positive control. Then, the florescence was monitored with excitation and emission wavelengths of 380 nm and 500 nm (Molecular Devices SpectraMax M5, San Jose, CA, USA).

Where [4] appears, read: in vitro, identified in the intestinal tract following cow milk ingestion, read-out: DPP-IV inhibition IC50.
[5] abbreviates: peptides with molecular weights greater than 1000 Da, no reference given, read-out: DPP-IV inhibition IC50.
Setting [6] is: read-out: DPP-IV inhibition IC50.
Where [7] appears, read: competitive DPP-IV inhibitory peptides from camel whey protein, read-out: DPP-IV inhibition IC50.
The mark [8] stands for this setting: in vitro inhibition test, camel-milk-derived protein hydrolysates.

Read-outs that look alike come from different tables or passages of the source. Peptide text beside a SMILES is read from it.

T1 sequence (P27487 whole entry): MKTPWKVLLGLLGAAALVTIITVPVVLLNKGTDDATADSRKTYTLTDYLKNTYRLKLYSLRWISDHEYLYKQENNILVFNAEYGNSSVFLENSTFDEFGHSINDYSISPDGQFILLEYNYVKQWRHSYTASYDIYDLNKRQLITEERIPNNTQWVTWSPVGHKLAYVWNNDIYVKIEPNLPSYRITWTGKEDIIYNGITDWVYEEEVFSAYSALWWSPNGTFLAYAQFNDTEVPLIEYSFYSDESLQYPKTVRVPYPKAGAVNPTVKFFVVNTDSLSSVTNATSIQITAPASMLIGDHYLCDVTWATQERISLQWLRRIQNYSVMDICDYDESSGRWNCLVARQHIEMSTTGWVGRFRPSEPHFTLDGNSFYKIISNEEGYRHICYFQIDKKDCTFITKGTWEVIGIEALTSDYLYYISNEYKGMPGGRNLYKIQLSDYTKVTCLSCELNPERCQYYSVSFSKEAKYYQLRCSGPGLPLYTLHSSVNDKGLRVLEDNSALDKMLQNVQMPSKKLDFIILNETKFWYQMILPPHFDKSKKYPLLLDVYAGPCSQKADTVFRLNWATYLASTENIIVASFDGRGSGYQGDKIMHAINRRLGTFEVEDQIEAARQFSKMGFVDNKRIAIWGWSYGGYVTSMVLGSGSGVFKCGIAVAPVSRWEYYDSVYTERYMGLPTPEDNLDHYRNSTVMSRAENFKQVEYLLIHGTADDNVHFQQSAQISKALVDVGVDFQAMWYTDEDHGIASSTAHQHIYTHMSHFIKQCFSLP
T2 sequence (P27487 whole entry): as above

In the case of LWV [Peptide P12], the “DPP-IV Inhibitory Activity (IC50, μM)” value at DPP-IV [1] is “not detectable”.
For the compound FLEP, the IC50 in the data set with DPP-IV [2] (tri- and tetrapeptides containing Pro at the C-terminus, read-out: DPP-IV inhibition IC50) is 65.3 ± 3.5 µM.
With LPVPQ, the IC50 in the data set on DPP-IV [2] (setting [4]) is 43.8 ± 8.8 µM.
As to INNQFLPYPY, the IC50 with DPP-IV [2] (setting [5]) is 40.1 µM.
Consider `CC(C)[C@H](N)C(=O)N1CCC[C@H]1C(=O)N1CCC[C@H]1C(=O)N[C@@H](Cc1ccccc1)C(=O)O` [Peptide P2, VPPF] (H-VPPF-OH), for which the IC50 on DPP-IV [1] came out at 1570 ± 256 µM.
Take LLW [Peptide P14]: the “DPP-IV Inhibitory Activity (IC50, μM)” value on DPP-IV [1] is given as “not detectable”; at DPP-IV [1] (listed as LLW), “no DPP-IV inhibitory activity”.
At DPP-IV [1], `CC(C)C[C@H](NC(=O)[C@@H]1CCCN1C(=O)[C@@H]1CCCN1C(=O)[C@@H](N)CC(C)C)C(=O)O` [Peptide P3, LPPL] (H-LPPL-OH; N-terminus and C-terminus assumed) returned an IC50 of 2559 ± 5.7 µM.
For IPYWT, in the data set with DPP-IV [2] (setting [6]), the IC50 is 18.3 µM.
Turning to `CC(C)C[C@H](NC(=O)[C@H](C)NC(=O)[C@@H]1CCCN1)C(=O)N[C@@H](Cc1ccccc1)C(=O)O` [Peptide P5, PALF] (H-PALF-OH; N-terminus and C-terminus assumed), the IC50 against DPP-IV [1] worked out at 1750 ± 29.9 µM.
Turning to FVY [Peptide P6], the “DPP-IV Inhibitory Activity (IC50, μM)” value on DPP-IV [1] is reported as “not detectable”.
On to VPV, for which, in the data set on DPP-IV [2] (setting [7]), the IC50 is 6.6 µM.
Regarding `N[C@@H](Cc1ccc(O)cc1)C(=O)N1CCC[C@H]1C(=O)N[C@@H](Cc1ccccc1)C(=O)O` [Peptide P4, YPF] (H-Tyr-Pro-Phe-OH), the Cell viability result with Caco-2 cells is recorded as “no significant decrease in cell viability”.
LPVP: the IC50 with DPP-IV [2] (setting [8]) is 87 ± 3.2 µM.
With VPF, the IC50 in the data set on DPP-IV [2] (setting [7]) was 55.1 µM.
With IPYWTY, the IC50 with DPP-IV [2] (setting [6]) is 11 µM.
For LLAP, the “DPP-IV inhibitory activity (in words)” value in the data set on DPP-IV [2] is reported as “high DPP-IV inhibitory activity”.
As for IPAVF, the IC50 in the data set on DPP-IV [2] (identified from bovine β-lactoglobulin, read-out: DPP-IV inhibition IC50) was 44.7 µM.
Regarding MPVQA, in the data set with DPP-IV [2] (setting [8]), the IC50 is 93.3 ± 8 µM.
As for WVL [Peptide P10], in the data set on DPP-IV [2] (literature search), the “DPP-IV inhibitory activity (in words)” value was “previously reported to have DPP-IV inhibitory activity”.
For `CC(C)C[C@H](NC(=O)[C@@H](N)CC(C)C)C(=O)N[C@@H](CC(C)C)C(=O)N1CCC[C@H]1C(=O)O` [Peptide P9, LLLP] (H-LLLP-OH; N-terminus and C-terminus assumed), the IC50 against DPP-IV [1] was 214 ± 0.64 µM; in data set [3], 155 ± 8.41 µM. Further, the Cell viability result in the data set on Caco-2 cells was “no significant decrease in cell viability”.
On to LYL [Peptide P7], for which, at DPP-IV [1], the “DPP-IV Inhibitory Activity (IC50, μM)” value is reported as “not detectable”.
Regarding PACGGFYISGRPG, the half-maximal inhibitory concentration (IC50) in the data set with DPP-IV [2] (setting [5]) was 9.4 µM.
For LVW [Peptide P11], the “DPP-IV Inhibitory Activity (IC50, μM)” value on DPP-IV [1] was “not detectable”.
For IPM, the IC50 with DPP-IV [2] (setting [4]) is 69.5 ± 8.7 µM.
As for YPI, the half-inhibitory concentration (IC50) in the data set with DPP-IV [2] (setting [7]) is 35 µM.
